Like-named read-outs stand apart in the source and are kept apart here. Square brackets hold non-standard residues; d marks the D form. Ends that are not written are not given here. Cit = NC(=O)NCCC[C@H](N)C(=O)O
What was measured:
splenocytes [1] = experiment: Ex vivo elispot assay on splenocytes of immunised C57B1 mice; format: in vivo, C57BL/6 mice; details: C57B1 mice
Description: (§1) C57BL/6 mice (Charles River, UK), HLA-DR4 mice (Taconic, USA), HHDII mice (Pasteur institute, France) and HHDII/DRI mice (Pasteur institute, France) were used, aged between 8 and 12 weeks, and cared for by the staff at Nottingham Trent University. All work was carried out under a Home Office project license. Peptides were dissolved in 10% Dimethylformamide to 1 mg/ml and then emulsified (a series of dilutions) with different adjuvants: CpG and MPLA 6 μg/mouse of each (Invivogen, UK), Incomplete Freund's […] (Sigma, UK), and GMCSF 10 μg/mouse (Peprotech, UK). Peptides (25 μg/mouse) were injected subcutaneously at the base of the tail. DNA (1 μg/mouse) was coated onto 1.0 μm gold particles (BioRad, Hemel Hempstead, UK) using the manufacturer's instructions and administered intradermally by genegun (BioRad). Homspera (10 nM/mouse) (PeptideSynthetics, UK) was injected intradermally with genegun immunisation. Mice were immunized at either day 0 for peptide immunisation or days, 0, 7, and 14 for peptide and genegun immunisation. Spleens were removed for analysis at day 14 for peptide and day 20 for peptide or genegun immunisation unless stated otherwise. 400 μg Anti-CD25 antibody (PC61) was administered i.p. in saline 3 days prior to the immunisation. 200 μg Anti-CTLA-4 antibody (UC 10-4F, 10-11) was administered i.p. in saline at day 7 and 14 with either genegun or peptide immunisation.
(§2) Elispot assays were performed using murine IFNγ, IL-17 and IL-10 capture and detection reagents according to the manufacturer's instructions (Mabtech, Sweden). In brief, anti-IFNγ, IL-17 and IL-10 antibodies were coated onto wells of 96-well Immobilin-P plate. Synthetic peptides (at a variety of concentrations) and 5×10^5 per well splenocytes were added to the wells of the plate in triplicate. Tumour target cells were added where relevant at 5×10^4/well in triplicate and plates incubated for 40 hrs at 37° C. After incubation, captured IFNγ, […], IL-17 and IL-10 were detected by biotinylated anti-IFNγ, IL-17 and IL-10 antibodies and developed with a strepatavidin alkaline phosphatase and chromogenic substrate. Spots were analysed and counted using an automated plate reader (Cellular Technologies Ltd). Functional avidity was calculated as the concentration mediating 50% maximal effector function using a graph of effector function versus peptide concentration.

splenocytes [2] = experiment: Ex vivo elispot assay on splenocytes of immunised HLA-DR4 transgenic mice; format: in vivo; details: for IFNγ/IL-17 response with alum or IFA / IFNγ/IL-17 responses with CpG/MPLA, GMCSF and TMX201 adjuvants / IL-10 responses to the citrullinated peptides with IFA: 25 μg peptide s.c.; for IL-10 elispot responses: against wild type and citrullinated peptides; for IFNγ elispot response to citrullinated peptide, mean / IFNγ elispot response to wild type peptide, mean: day 14 splenocytes; for response after depletion of CD4 cells or addition of MHC class II blocking antibody: L243 antibody, FIG. 15
Description: as §1, §2

B16F1 cells = experiment: Tumour challenge with B16 tumour lacking HLA-DR0401; format: in vivo, HLA-DR4 transgenic mice; details: B16 tumour lacking expression of HLA-DR0401; 25 μg peptide in CpG and MPLA
Description: (§3) For tumour challenge experiments mice were challenged with 2.5×10^4 B16 HHDII NYESO/TAP2 siβ2m 1F10 cells or B16 DR4 2E7 cells subcutaneously on the right flank 3 days prior to primary immunisation and then were immunised as above. Anti-IFNγ antibody (300 μg/dose), anti-IL-17 antibody (200 μg/dose) and anti-HLA-DR antibody (300 μg/dose) were administered i.p. in saline at days 2, 7, 11 and 14 post tumour implant. Anti-CD4 antibody (500 μg/dose) was administered i.p.in saline at days 2 and 8 post tumour implant. Tumour growth was monitored at 3-4 days intervals and mice were humanely euthanized once tumour reached ≥10 mm in diameter.

Granzyme B = Granzyme B ELISA on supernatant of ex vivo IFNγ elispot; format: cell-based, HLA-DR4 transgenic mice; details: immunised days 0, 7, 14 in CPG and MPLA
From the text: Supernatant from ex vivo IFNγ elispot assays on splenocytes was removed after 40 hrs and assessed for Granzyme B by elisa assay (R&D systems) according to manufacturer's instructions.

PBMC = experiment: Proliferation assay of PBMC from cancer patients; format: cell-based, human; details: PBMC stimulated with 10 μg/ml peptide for 4, 7 and 11 days, 3H-thymidine
Description: PBMC were isolated from freshly drawn heparinised blood by Ficol-Hypaque (Sigma) gradient centrifugation. PBMC (1.5×10^6 cells/well) were stimulated with single peptides (final concentration 10 μg/ml) in RPMI containing 5% pooled autologous human serum, 2 mM glutamine, 20 mM HEPES and Penicillin-streptomycin (1%) in a final volume of 2 ml. Stimulation with purified protein derivative, PPD (final concentration 10 μg/ml) served as a positive control for the proliferative capacity of PBMC. As a negative control PBMC were incubated with medium alone. The PBMC were cultured at 37° C. in an atmosphere of 5% CO2 for 4, 7 and 11 days. To assess proliferation at these times points 100 μl in triplicate from each culture was aliquoted into a round bottom well of a 96 well plate and ^3H-thymidine added (0.0185 MBq/well) and incubated at 37° C. for a further 8 hours. The cultures were harvested onto unifilter plates and incorporation of ^3H-thymidine was determined by β-scintillation counting. The results were assessed by calculating the stimulation index (SI) as the ratio of the mean of counts per minute (cpm) of epitope-stimulated to the mean of unstimulated cultures. The proliferative assay was considered positive when SI >2.5.

T2 DR4 tumour cells = experiment: 51Cr-release assay, CTL lines from immunised mice against T2 DR4 cells; format: cell-based; details: for killing of normal splenocytes: DR4 splenocytes; for killing of T2 tumour cells transfected with human DR4: targets pulsed with peptide or not
Description: Target cells were labelled for 1 hr with 1.85 MBq sodium (^51Cr) chromate (Amersham, Essex, UK) with or without 10 μg/ml peptide. Post incubation they were washed 3 times in RPMI. Targets 5×10^3/well of a 96-well V-bottomed plates were set up and co incubated with different densities of effector cells in a final volume of 200 μl of RPMI, 10% FCS (Sigma), 20 mM HEPES buffer, 2 mM L-glutamine, 100 units/ml penicillin and 100 μg/ml streptomycin. After 20 hrs at 37° C., 50 μl of supernatants were removed from each well and transferred to a Lumaplate (Packard, Rigaweg, the Netherlands). Plates were read on a Topcount Microplate Scintillation Counter (Packard). Percentage specific lysis was calculated using the following formula: specific lysis=100×[(experimental release−spontaneous release)/(maximum release−spontaneous release)].

B16F1-DR4 cells = experiment: Tumour challenge with B16F1-DR4 cells; format: in vivo, HLA-DR4 transgenic mice; details: for anti-tumour response with blockade of IFNγ in vivo: IFNγ neutralising monoclonal antibody; for anti-tumour response with blockade of IL-17 in vivo: IL-17 neutralising antibody; for anti-tumour response in combination with CD4 T cell depletion (anti-CD4 antibody): clone GK1.5; for anti-tumour response / survival: peptide 25 μg in CpG and MPLA s.c. or DNA via gene gun, days 4, 11, 18, versus unimmunised control
Description: as §3

splenocytes [3] = experiment: Ex vivo elispot assay on splenocytes of immunised HLA-DR1 / HLA-A2/DR1 (HHDII/DR1) transgenic mice; format: in vivo; details: HHD1/DR1 mice
Description: as §1, §2

HLA-DR0401 [4] = molecular target: HLA-DR0401 (Homo sapiens, UniProt P01903+P01911, A100K/A169T/F76Y/I96L/K127E/L162R/M171V/N62H/P40V/Q125Y/R42H/S133A/S149N/S66Y/V115G/V209L/W38E); experiment: HLADR0401 competitive binding assay against biotinylated HA306-318; details: FIG. 12
From the text: In brief, peptides of interest were mixed with a predetermined concentration biotinylated HA306-318 reference peptide at increasing concentrations and added to plate bound HLA DR0401. Amounts of biotinylated reference peptide binding to HLA DR0401 was quantified using streptavidin linked enzyme step followed by detection with chromogenic substrate. Maximal binding is taken as the value achieved by biotinylated HA 306-318 peptide alone. As a positive control unlabelled HA 306-318 peptide was used to compete with the biotinylated version.

HLA-DR0401 [5] = molecular target: T1, HLA-DR0401 (human); experiment: competitive binding assay, plate-bound HLA-DR0401, biotinylated HA306-318 as competitor
T1 construct: also called purified HLA-DR0401; HLA-DR4

[6] = 25 μg peptide with CpG and MPLA day 0, day 14
[7] = 25 μg peptide with CpG and MPLA day 0, day 14, peptide 5 μM
[8] = 25 μg peptide with CpG and MPLA day 0, peptide 5 μM
[9] = 25 μg peptide in CpG and MPLA s.c. days 4, 11, 18

| Molecule | response after peptide immunisation (splenocytes [1]) | IFNγ/IL-17 response with alum or IFA (splenocytes [2]; day 14) | IFNγ/IL-17 responses with CpG/MPLA, GMCSF and TMX201 adjuvants (splenocytes [2]; day 14) | IL-10 responses to the citrullinated peptides with IFA (splenocytes [2]; day 14) | IL-10 elispot responses (splenocytes [2]; [6]) | IFNγ elispot response to citrullinated peptide, mean (splenocytes [2]; [8]) | IFNγ elispot response to wild type peptide, mean (splenocytes [2]; [8]) | response after depletion of CD4 cells or addition of MHC class II blocking antibody (splenocytes [2]; IFNγ elispot) | tumour growth and survival (B16F1 cells) | Granzyme B release upon stimulation with citrullinated peptides (Granzyme B) | killing of normal splenocytes (T2 DR4 tumour cells) | killing of T2 tumour cells transfected with human DR4 (T2 DR4 tumour cells) | anti-tumour response with blockade of IFNγ in vivo (B16F1-DR4 cells) | anti-tumour response with blockade of IL-17 in vivo (B16F1-DR4 cells) | anti-tumour response in combination with CD4 T cell depletion (anti-CD4 antibody) (B16F1-DR4 cells) | anti-tumour response / survival (B16F1-DR4 cells) | response after peptide immunisation (splenocytes [3]) | also measured |
| --- | --- | --- | --- | --- | --- | --- | --- | --- | --- | --- | --- | --- | --- | --- | --- | --- | --- | --- |
| LPNFSSLNLRETNLDSLPL [citrullinated vim 415] | failed to raise a response | no response | Potent IFNγ/IL-17 responses | high frequency IL-10 responses | No significant IL-10 responses | 1000 /million splenocytes | no responses | CD4 mediated | failed to show any tumour response | release of Granzyme B | no killing of normal splenocytes | killed transfected targets whether they were pulsed with the appropriate peptide or not | abrogates | low significant influence | totally abrogates the anti-tumour response | strong anti-tumour responses | failed to raise a response | EC50 (splenocytes [2]; 25 μg peptide days 0, 7, 14, anti-CTLA-4 days 7 and 14, day 21, IFNγ elispot, read-out: avidity of the T cell response in the presence of an anti-CTLA-4 mab): 0.01 µM; EC50 (splenocytes [2]; 25 μg peptide days 0, 7, 14, day 21, IFNγ elispot, read-out: avidity of the T cell response without anti-CTLA-4 mab): 1 µM; IL-2 elispot response to citrullinated peptide, mean (splenocytes [2]; [7]): 350 /million splenocytes; IL-2 elispot response to wild type peptide (splenocytes [2]; [7]): no response; IL-17 elispot response to citrullinated peptide, mean (splenocytes [2]; [7]): 530 /million splenocytes; IL-17 elispot response to wild type peptide, mean (splenocytes [2]; [7]): 140 /million splenocytes; T cell responses to mouse vim 415 cit versus human vim 415 cit (splenocytes [2]; immunised with 25 μg human peptide day 0, day 14, IFNγ and IL-17 elispot): equal responses to both peptides; T helper phenotype when immunised with complete Freund's adjuvant (splenocytes [2]; mouse, in vivo): Th1/IL-17 phenotype; patients showing a proliferative response (SI >2.5) (PBMC; listed as citrullinated vim 415-433): 5/11; patients showing a proliferative response (SI >2.5) (PBMC; listed as vim 415 cit): Five of eight; mice cured of their tumour (B16F1-DR4 cells; [9]): 30%; mice with no tumour at day 35 (B16F1-DR4 cells; [9]): 50%; anti-tumour response in combination with anti-HLA-DR blocking antibody (B16F1-DR4 cells; B16 tumour expressing HLA-DR0401): prevents the anti-tumour response |
| citSYVTTSTcitTYSLGSALcitPSTS ([Cit]SYVTTST[Cit]TYSLGSAL[Cit]PSTS) [citrullinated vim 28-49] | failed to raise a response | no response | Potent IFNγ/IL-17 responses | high frequency IL-10 responses | No significant IL-10 responses | 600 /million splenocytes | 250 /million splenocytes | CD4 mediated | delayed tumour growth and enhanced survival | release of Granzyme B | no killing of normal splenocytes | killed transfected targets whether they were pulsed with the appropriate peptide or not | abrogates | small effect significant influence | totally abrogates the anti-tumour response | significantly enhanced survival | failed to raise a response | EC50 (splenocytes [2]; 25 μg peptide day 0, day 14, increasing peptide concentration, IFNγ elispot, read-out: avidity of the IFNγ response (concentration mediating 50% maximal effector function)): 1 µM; EC50 (splenocytes [2]; 25 μg peptide day 0, day 14, increasing peptide concentration, IL-17 elispot, read-out: avidity of the IL-17 response (concentration mediating 50% maximal effector function)): 1 µM; IFNγ elispot response against vimentin 28-49 triple, double and single citrullinated peptides (splenocytes [2]; peptide immunisation, FIG. 11): significantly stronger response; binding to HLA-DR0401 (competition with HA 306-318 reference peptide) (HLA-DR0401 [4]): better binding to HLA-DR0401 compared to the wild type version; patients showing a proliferative response (SI >2.5) (PBMC): 5/11; patients showing a proliferative response (SI >2.5) (PBMC; listed as vim 28 cit): five |
| RSYVTTSTRTYSLGSALRPSTS (also called vim 28-49; vim 28) [Vimentin 28-49 wild type peptide] |  |  |  |  |  |  |  |  |  |  |  |  |  |  |  |  |  | binding result (HLA-DR0401 [5]): binds |

Reference: patent US12258377B2 (Scancell Limited, priority 2012, dated 2025)
